Test results taken from patent US7125671B2, “Nucleic acid amplification with terminal-phosphate labeled nucleotides” (GE Healthcare Bio-Sciences Corp., priority 2003, dated 2006).

Legend:
[1] = Non-enzymatic hydrolysis of dT4P-DDAO in the presence of MnCl2, effect of ammonium sulfate and related salts (FIG. 4); assay type: physicochemical; conditions: 10 mM salt; 0.5 mM MnCl2; 25 mM Tris.HCl pH 9.0; 95° C. for 60 minutes
Protocol: Four μl of each reaction mix was mixed with 16 μl of BAP solution in Hepes (0.005 units BAP/μl) and incubated at 37° C. for 60 minutes. Samples were read on Tecan ultra plate reader. Un heated sample and unheated sample without MnCl2 were used as controls. Raw fluorescence counts were converted into % degradation by using fluorescence counts from a Snake Venom phosphodiesterase hydrolyzed sample as 100% degraded sample.

[2] = Non-enzymatic hydrolysis of dT4P-DDAO in the presence of MnCl2, effect of other salts (FIG. 5); conditions: 10 or 25 mM salt; 0.5 mM MnCl2; 25 mM Hepes pH 8.1; 95° C. for 60 minutes
Protocol: Twenty μl of 25 mM Hepes, pH 8.1, containing 0.5 mM MnCl2, 1 μm dT4P-DDAO and 10 or 25 mM inorganic or organic salt (see FIG. 5) was heated at 95° C. for 60 minutes. 4 μl of each sample was treated with BAP as described above and read on Tecan ultra plate reader. An unheated sample with MnCl2 (water lane) and a heated sample without Hepes and MnCl2 were used as controls. Fluorescence counts were converted into % degradation as described above.

T. ba polymerase = test: PCR amplification with terminal-phosphate labeled nucleoside polyphosphates in the presence of stabilizing additives (FIG. 6); assay type: biochemical, Thermococcus barosii; conditions: dT4P-Me, dC4P-Me, 0.25 mM MnCl2, M13 DNA, 35 cycles
Protocol: Polymerase chain reaction (PCR) mixtures (20 μl) contained 25 mM Hepes (pH 8.1), 10 mM KCl, 2 mM MgSO4, 0.25 mM MnCl2, 1 mg/ml bovine serum albumin, 0.01% (v/v) Tween-20 and 10–25 mM salt as shown in FIG. 6. Each sample also contained 20 μm each of dA4P-Me, dT4P-Me, dC4P-Me, 200 μm dG4P-FlEt, 0.006 units/μl BAP, 2 units of T. ba polymerase, 0.1 μm −40 M13 forward primer, 0.1 μm −28 M13 reverse primer and 0.2 ng M13 DNA. In addition to the terminal-phosphate labeled nucleotide, terminal methyl-blocked dNTP's were used instead of normal dNTP's to prevent degradation by BAP (phosphatase). Latter is required for signal generation from dye-polyphosphate after the nucleotide is incorporated into DNA by polymerase. Reactions were carried out for 35 thermal cycles of 90° C., 30 sec.; 55° C., 30 sec.; and 65° C., 300 sec. Reaction products were loaded onto 1.6% agarose gels. The gels were stained with SYBR Gold (Molecular Probes) according to the manufacturers' instructions and scanned at 532 nm using a Typhoon fluorescence scanner (Amersham Biosciences). Gel size markers were a 100 bp ladder (Amersham Biosciences).

[3] = target: pfu (with A486Y mutation) polymerase (Pyrococcus furiosus, UniProt P61875, A486Y); test: Quantitative PCR with terminal-phosphate labeled nucleoside polyphosphates on ABI 7900; assay type: biochemical; conditions: 200 μm dG4P-FlEt with dA4P-Me, dT4P-Me, dC4P-Me; BAP; 50 cycles; FIG. 7
Chain of pfu (with A486Y mutation) polymerase (P61875 whole entry A486Y): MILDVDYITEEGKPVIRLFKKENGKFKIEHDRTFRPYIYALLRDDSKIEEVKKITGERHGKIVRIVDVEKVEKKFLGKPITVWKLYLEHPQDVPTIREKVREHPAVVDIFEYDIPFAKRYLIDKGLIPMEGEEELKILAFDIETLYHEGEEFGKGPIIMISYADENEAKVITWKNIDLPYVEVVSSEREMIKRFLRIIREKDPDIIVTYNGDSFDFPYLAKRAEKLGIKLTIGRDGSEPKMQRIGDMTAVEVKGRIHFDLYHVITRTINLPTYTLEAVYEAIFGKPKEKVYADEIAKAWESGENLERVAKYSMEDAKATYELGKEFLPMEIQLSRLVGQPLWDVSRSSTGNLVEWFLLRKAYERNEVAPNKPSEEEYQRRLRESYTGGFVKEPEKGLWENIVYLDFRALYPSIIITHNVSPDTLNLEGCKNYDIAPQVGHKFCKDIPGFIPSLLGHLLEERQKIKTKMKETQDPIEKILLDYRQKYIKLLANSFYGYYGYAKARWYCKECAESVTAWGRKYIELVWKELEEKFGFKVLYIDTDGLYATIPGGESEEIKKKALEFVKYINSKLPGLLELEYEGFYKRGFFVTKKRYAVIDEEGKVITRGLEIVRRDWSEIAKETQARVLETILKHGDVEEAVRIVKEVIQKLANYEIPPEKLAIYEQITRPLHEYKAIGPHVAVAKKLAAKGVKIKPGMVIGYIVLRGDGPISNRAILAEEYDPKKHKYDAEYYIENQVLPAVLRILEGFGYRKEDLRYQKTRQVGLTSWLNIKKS
Protocol: Polymerase chain reaction (PCR) mixtures (20 μl) contained 25 mM Tris.HCl (pH 9.0), 10 mM KCl, 2 mM MgSO4, 0.25 mM MnCl2, 1 mg/ml bovine serum albumin and 0.01% (v/v) Tween-20. Each sample also contained 20 μm each of dA4P-Me, dT4P-Me, dC4P-Me, 200 μm dG4P-FlEt, 0.005 units/μl BAP, 2 units of pfu (with A486Y mutation) polymerase, 0.1 μm −40 M13 forward primer, 0.1 μM −28 M13 reverse primer and 1.2×10^6–1.2×10^9 copies of M13 DNA. In addition to the terminal-phosphate labeled nucleotide, the remaining nucleotides were blocked with a methyl group on the terminal phosphate to prevent degradation by BAP. Reactions were carried out for 50 thermal cycles of 90° C., 30 sec.; 55° C., 30 sec.; and 65° C., 300 sec on ABI 7900 instrument.
Reaction products were also loaded onto 1.6% agarose gels. The gels were stained with SYBR Gold (Molecular Probes) according to the manufacturers' instructions and scanned at 532 nm using a Typhoon fluorescence scanner (Amersham Biosciences) to show the formation of PCR product (FIG. 8). Gel size markers were a 100 bp ladder (Amersham Biosciences).

[4] = Non-enzymatic hydrolysis of terminal-phosphate labeled nucleoside polyphosphate on thermal cycling, effect of glycerol; assay type: physicochemical; conditions: 5% glycerol; high temperatures
Protocol: Seventy μl samples containing 50 mM Hepes, pH 8.0, 5 mM MgCl2, 0.5 mM MnCl2, 0.01% Tween-20, 1 μm ddT4P-EtFl, 100 nM primer/template, 0.0036 units/μl SAP with or without 5% glycerol were cycled as follows: 95° C., 30 sec and 50° C., 3 min, repeat 10 times. Amount of free dye formed was checked in a fluorimeter.

## N.N.O=S(=O)(O)O [ammonium sulfate]
[1]
  stabilization of dT4P-DDAO (% degradation): clearly stabilizes
[2]
  stabilization of dT4P-DDAO (% degradation): stabilize the nucleotide
T. ba polymerase; 10–25 mM salt, dA4P-Me, dG4P-FlEt
  PCR product formation in the presence of the additive: PCR product was separated

## CCOc1ccc2c(c1)Oc1cc(OP(=O)(O)OP(=O)(O)OP(=O)(O)OP(=O)(O)OC[C@H]3O[C@@H](n4cnc5c(=O)[nH]c(N)nc54)C[C@@H]3O)ccc1C21OC(=O)c2ccccc21 (stereo partly drawn) [dG4P-FlEt, 2′-Deoxyguanosine-5′-(δ-3′-(6′-ethoxyfluorescein)) tetraphosphate]
T. ba polymerase; absence of any stabilizer, with dA4P-Me
  PCR product formation: PCR product was separated
[3]
  cycle count at fluorescence threshold plotted against input M13 DNA copies: straight line

## OCC(O)CO [glycerol]
[4]
  effect of additive on degradation of ddT4P-EtFl caused by manganese: reduces the amount of degradation caused by manganese
